Test results as given in publication PMC5457276, “Influence of Amphibian Antimicrobial Peptides and Short Lipopeptides on Bacterial Biofilms Formed on Contact Lenses” (Materials, 2016).
Read-outs that look alike come from different tables or passages of the source. Where a SMILES comes first, the peptide text is derived from it. Where no end group is shown, it is not given here. The star is where a group is joined. Palmitoyl = CCCCCCCCCCCCCCCC(=O)*

Assays:
[1] = system: Escherichia coli ATCC 25922; type: cell-based; settings: E. coli; same MIC in μM (in brackets); broth microdilution, MHB II, overnight at 37 °C, triplicate
Protocol: (§1) All selected strains were obtained from the Polish Collection of Microorganisms (Polish Academy of Science, Wroclaw, Poland). Four Gram-positive and three Gram-negative strains linked with CL-related infections lenses were tested (Table 5). The microorganisms were cultured in a Mueller Hinton Broth II (MHB, Biocorp, Warsaw, Poland) overnight, at 37 °C.
(§2) Peptide susceptibility tests on the reference bacterial strains were performed with the following procedures recommended by the Clinical and Laboratory Standard Institute (CLSI). The activity of five peptides was tested on the Mueller Hinton Broth II (Biocorp, Warsaw, Poland) using broth microdilution method on polystyrene 96-well plates (Kartell, Noviglio, Italy). […] The plates were incubated overnight at 37 °C. MIC was assumed as the lowest concentration at which bacterial growth was no longer visible. All experiments were performed in triplicate.

[2] = system: Pseudomonas aeruginosa ATCC 9027; type: cell-based; settings: P. aeruginosa; same MIC in μM (in brackets); broth microdilution, MHB II, overnight at 37 °C, triplicate
Protocol: as §1, §2

[3] = system: Staphylococcus aureus ATCC 25923; type: cell-based; settings: S. aureus; same MIC in μM (in brackets); broth microdilution, MHB II, overnight at 37 °C, triplicate
Protocol: as §1, §2

[4] = system: Staphylococcus epidermidis ATCC 14990; type: cell-based; settings: S. epidermidis; same MIC in μM (in brackets); broth microdilution, MHB II, overnight at 37 °C, triplicate
Protocol: as §1, §2

[5] = system: Streptococcus pneumoniae ATCC 49619; type: cell-based; settings: S. pneumoniae; same MIC in μM (in brackets); broth microdilution, MHB II, overnight at 37 °C, triplicate
Protocol: as §1, §2

[6] = system: Streptococcus pyogenes PCM 465; type: cell-based; settings: S. pyogenes; same MIC in μM (in brackets); broth microdilution, MHB II, overnight at 37 °C, triplicate
Protocol: as §1, §2

[7] = system: Staphylococcus aureus ATCC 25923 biofilm on contact lenses; experiment: Biofilm assay on contact lenses (MBEC, resazurin); type: cell-based; settings: S. aureus, triplicate
Protocol: as §1
(§3) The CL and CL solutions used are commercially available. One-day CL (1-Day Acuvue Moist) containing Etafilcon A were obtained from Johnson and Johnson Vision Care (Jacksonsville, FL, USA). Four popular CL solutions were also tested (Table 6).
(§4) Biofilms of strains related with ocular infections were cultured on CL placed in polystyrene 24-well plates (Orange Scientific, Braine-l’Alleud, Belgium). Biomaterials were incubated at 37 °C in bacterial suspension in the Mueller Hinton Broth II (Biocorp, Warsaw, Poland) at initial inoculums of ca. 5 × 10^5 CFU/mL. After 24 h of incubation all of the CL were rinsed three times with a sterile phosphate buffer (AppliChem, Darmstadt, Germany). The lenses were then transferred into new wells with fresh MHB II. One-day biofilms were exposed to a pre-determined range of peptides concentration. […] Anti-biofilm activity of selected peptides was visualized using a cell-viability reagent, Resazurin (Sigma Aldrich, St. Louis, MO, USA). Upon contact with living cells the dye is metabolized by bacterial dehydrogenases resulting in the reduction of the blue resazurin to a pink resorufin. Positive controls contained CL immersed in bacterial suspensions without antimicrobials, while CL in a sterile culture medium served as negative controls. The minimum biofilm eradication concentration (MBEC) was read after a one-hour incubation with Resazurin (final concentration per sample = 0.005%) MBEC was determined as the lowest concentration at which the reduction of resazurin was lower or equal (10% ± 0.5%) as compared to positive (100%) and negative (0%) controls. All experiments were performed in triplicate.

[8] = system: Staphylococcus epidermidis ATCC 14990 biofilm on contact lenses; experiment: Biofilm assay on contact lenses (MBEC, resazurin); type: cell-based; settings: S. epidermidis, triplicate
Protocol: as §1, §3, §4

[9] = system: Streptococcus pneumoniae ATCC 49619 biofilm on contact lenses; experiment: Biofilm assay on contact lenses (MBEC, resazurin); type: cell-based; settings: S. pneumoniae, triplicate
Protocol: as §1, §3, §4

[10] = system: Streptococcus pyogenes PCM 465 biofilm on contact lenses; experiment: Biofilm assay on contact lenses (MBEC, resazurin); type: cell-based; settings: S. pyogenes, triplicate
Protocol: as §1, §3, §4

[11] = system: Escherichia coli ATCC 25922 biofilm on contact lenses; type: cell-based; settings: for Minimum biofilm eradication concentration (reduction of resazurin ≤10% ± 0.5%): E. coli, triplicate; for Concentration eradicating E. coli biofilms (MBEC): ATCC 25922, 24 h
Protocol: as §1, §3, §4

[12] = system: Pseudomonas aeruginosa ATCC 9027 biofilm on contact lenses; type: cell-based; settings: for Minimum biofilm eradication concentration (reduction of resazurin ≤10% ± 0.5%): P. aeruginosa, triplicate; for Concentration eliminating P. aeruginosa from the lens surface (MBEC): ATCC 9027, 24 h
Protocol: as §1, §3, §4

[13] = system: biofilms formed by Gram-positive bacteria on contact lenses; experiment: Biofilm assay on contact lenses (MBEC), summary over Gram-positive strains; type: cell-based
Protocol: as §1, §3, §4

HaCaT cells = settings: cited from earlier work
Excerpt: Our data reveal that AMPs might be promising antibacterial additives to CL solutions. However there are certain limitations and issues which need to be considered. The long-time stability of compounds in a water solution needs to be examined, but first of all the evaluation of toxicity towards human eye cells needs to be carried out. In the previous study tested amphibian peptides turned out to be safe towards HaCaT cells at their microbiologically-active concentrations. […] Considering the potenti ...

[14] = system: planktonic bacteria, all tested strains; experiment: Minimum inhibitory concentration, summary over all tested strains; type: cell-based; settings: summary of Table 1
Protocol: as §1, §2

[15] = 25 °C, one-day biofilm on contact lens (Etafilcon A), 24 h exposure in MHB II, resazurin read-out
[16] = 25 °C, same MBEC in μM (in brackets), biofilm on contact lens, 24 h exposure
[17] = 37 °C, one-day biofilm on contact lens (Etafilcon A), 24 h exposure in MHB II, resazurin read-out
[18] = 37 °C, same MBEC in μM (in brackets), biofilm on contact lens, 24 h exposure

CCCCCCCCCCCCCCCC(=O)N[C@@H](CCCNC(=N)N)C(=O)N[C@@H](CCCNC(=N)N)C(N)=O [Palm-RR-NH2] (Palmitoyl-Arg-Arg-NH2)
Minimum inhibitory concentration [1]: (20.1) μM | Minimum inhibitory concentration [2]: (40.3) μM | Minimum inhibitory concentration [3]: (10.1) μM | Minimum inhibitory concentration [4]: (5.0) μM | Minimum inhibitory concentration [5]: (5.0) μM | Minimum inhibitory concentration [6]: (20.1) μM | Minimum biofilm eradication concentration (reduction of resazurin ≤10% ± 0.5%) [7, 15]: 128 µg/mL | Minimum biofilm eradication concentration (reduction of resazurin ≤10% ± 0.5%) [7, 16]: (161.0) μM | Minimum biofilm eradication concentration (reduction of resazurin ≤10% ± 0.5%) [7, 17]: 256 µg/mL | Minimum biofilm eradication concentration (reduction of resazurin ≤10% ± 0.5%) [7, 18]: (322.1) μM | Minimum biofilm eradication concentration (reduction of resazurin ≤10% ± 0.5%) [8, 15]: 64 µg/mL | Minimum biofilm eradication concentration (reduction of resazurin ≤10% ± 0.5%) [8, 16]: (80.5) μM | Minimum biofilm eradication concentration (reduction of resazurin ≤10% ± 0.5%) [8, 17]: 32 µg/mL | Minimum biofilm eradication concentration (reduction of resazurin ≤10% ± 0.5%) [8, 18]: (40.3) μM | Minimum biofilm eradication concentration (reduction of resazurin ≤10% ± 0.5%) [9, 15]: 64 µg/mL | Minimum biofilm eradication concentration (reduction of resazurin ≤10% ± 0.5%) [9, 16]: (80.5) μM | Minimum biofilm eradication concentration (reduction of resazurin ≤10% ± 0.5%) [9, 17]: 32 µg/mL | Minimum biofilm eradication concentration (reduction of resazurin ≤10% ± 0.5%) [9, 18]: (40.3) μM | Minimum biofilm eradication concentration (reduction of resazurin ≤10% ± 0.5%) [10, 15]: 128 µg/mL | Minimum biofilm eradication concentration (reduction of resazurin ≤10% ± 0.5%) [10, 16]: (161.0) μM | Minimum biofilm eradication concentration (reduction of resazurin ≤10% ± 0.5%) [10, 17]: >512 µg/mL | Minimum biofilm eradication concentration (reduction of resazurin ≤10% ± 0.5%) [10, 18]: (>644.1) μM | Minimum biofilm eradication concentration (reduction of resazurin ≤10% ± 0.5%) [11, 15]: 256 µg/mL | Minimum biofilm eradication concentration (reduction of resazurin ≤10% ± 0.5%) [11, 16]: (322.1) μM | Minimum biofilm eradication concentration (reduction of resazurin ≤10% ± 0.5%) [11, 17]: 512 µg/mL | Minimum biofilm eradication concentration (reduction of resazurin ≤10% ± 0.5%) [11, 18]: (644.1) μM | Minimum biofilm eradication concentration (reduction of resazurin ≤10% ± 0.5%) [12, 15]: >512 µg/mL | Minimum biofilm eradication concentration (reduction of resazurin ≤10% ± 0.5%) [12, 16]: (>644.1) μM | Minimum biofilm eradication concentration (reduction of resazurin ≤10% ± 0.5%) [12, 17]: >512 µg/mL | Minimum biofilm eradication concentration (reduction of resazurin ≤10% ± 0.5%) [12, 18]: (>644.1) μM

FLPLIGRVLSGIL-NH2 [Temporin A, reference compound]
Concentration eliminating P. aeruginosa from the lens surface (MBEC) [12]: 512 µg/mL

CCCCCCCCCCCCCCCC(=O)N[C@@H](CCCCN)C(=O)N[C@@H](CCCCN)C(N)=O [Palm-KK-NH2]
Minimum inhibitory concentration [1]: (10.8) μM | Minimum inhibitory concentration [2]: (21.7) μM | Minimum inhibitory concentration [3]: (10.8) μM | Minimum inhibitory concentration [4]: (5.4) μM | Minimum inhibitory concentration [5]: (10.8) μM | Minimum inhibitory concentration [6]: (21.7) μM | Minimum biofilm eradication concentration (reduction of resazurin ≤10% ± 0.5%) [7, 15]: 32 µg/mL | Minimum biofilm eradication concentration (reduction of resazurin ≤10% ± 0.5%) [7, 16]: (43.3) μM | Minimum biofilm eradication concentration (reduction of resazurin ≤10% ± 0.5%) [7, 17]: 64 µg/mL | Minimum biofilm eradication concentration (reduction of resazurin ≤10% ± 0.5%) [7, 18]: (86.6) μM | Minimum biofilm eradication concentration (reduction of resazurin ≤10% ± 0.5%) [8, 15]: 32 µg/mL | Minimum biofilm eradication concentration (reduction of resazurin ≤10% ± 0.5%) [8, 16]: (43.3) μM | Minimum biofilm eradication concentration (reduction of resazurin ≤10% ± 0.5%) [8, 17]: 32 µg/mL | Minimum biofilm eradication concentration (reduction of resazurin ≤10% ± 0.5%) [8, 18]: (43.3) μM | Minimum biofilm eradication concentration (reduction of resazurin ≤10% ± 0.5%) [9, 15]: 64 µg/mL | Minimum biofilm eradication concentration (reduction of resazurin ≤10% ± 0.5%) [9, 16]: (86.6) μM | Minimum biofilm eradication concentration (reduction of resazurin ≤10% ± 0.5%) [9, 17]: 64 µg/mL | Minimum biofilm eradication concentration (reduction of resazurin ≤10% ± 0.5%) [9, 18]: (86.6) μM | Minimum biofilm eradication concentration (reduction of resazurin ≤10% ± 0.5%) [10, 15]: 32 µg/mL | Minimum biofilm eradication concentration (reduction of resazurin ≤10% ± 0.5%) [10, 16]: (43.3) μM | Minimum biofilm eradication concentration (reduction of resazurin ≤10% ± 0.5%) [10, 17]: 512 µg/mL | Minimum biofilm eradication concentration (reduction of resazurin ≤10% ± 0.5%) [10, 18]: (693.0) μM | Concentration eradicating E. coli biofilms (MBEC) [11]: 256 µg/mL | Minimum biofilm eradication concentration (reduction of resazurin ≤10% ± 0.5%) [11, 15]: 256 µg/mL | Minimum biofilm eradication concentration (reduction of resazurin ≤10% ± 0.5%) [11, 16]: (346.5) μM | Minimum biofilm eradication concentration (reduction of resazurin ≤10% ± 0.5%) [11, 17]: 256 µg/mL | Minimum biofilm eradication concentration (reduction of resazurin ≤10% ± 0.5%) [11, 18]: (346.5) μM | Minimum biofilm eradication concentration (reduction of resazurin ≤10% ± 0.5%) [12, 15]: >512 µg/mL | Minimum biofilm eradication concentration (reduction of resazurin ≤10% ± 0.5%) [12, 16]: (>693.0) μM | Minimum biofilm eradication concentration (reduction of resazurin ≤10% ± 0.5%) [12, 17]: >512 µg/mL | Minimum biofilm eradication concentration (reduction of resazurin ≤10% ± 0.5%) [12, 18]: (>693.0) μM | Concentrations eradicating biofilms formed by Gram-positive bacteria (MBEC) ([13]; at 37 °C): 32 to 512 µg/mL | Concentrations eradicating biofilms formed by Gram-positive bacteria (MBEC) ([13]; printed "below 25 °C"): 32 to 64 µg/mL | Toxicity towards HaCaT cells / human keratinocytes (in words) (HaCaT cells): high toxicity

GLFDVIKKVASVIGGL-NH2 [Citropin 1.1, reference compound]
Concentration eradicating E. coli biofilms (MBEC) [11]: 128 to 256 µg/mL | Concentration eliminating P. aeruginosa from the lens surface (MBEC) [12]: 512 µg/mL | MBEC values, range over Gram-positive strains ([13]; both temperatures (25 °C and 37 °C)): 16 to 64 µg/mL

GIGKFLKKAKKFGKAFVKILKK-NH2 [Pexiganan]
Concentrations inhibiting bacterial growth (MIC), range over all tested strains [14]: 1 to 8 µg/mL
